Read-outs that look alike come from different tables or passages of the source. Peptide text beside a SMILES is read from it.
Assays:
[1] = test system: HHV8 infected cells of AIDS patients with Kaposi's sarcoma
[2] = test system: HIV-1
Protocol: Human lysozyme (2 mg) was treated with clostripain (10 units, Sigma) in 400 μl of Tris buffer, pH7.6 at 37° C. for 24 h. The digest was resolved by reversed phase chromatography on a ProRPC column (Hr5/10). […] The fractions were assayed for anti-HIV activity by p24 production in HIV-1 infected ACH2 T lymphocytes as described in Lee-Huang et al. (1999).

Compound	EC50 ([2]; 24 h) [nM]	Anti-HIV activity (EC50) [2]	other results
CC(C)[C@H](NC(=O)[C@H](Cc1c[nH]c2ccccc12)NC(=O)[C@H](C)NC(=O)[C@@H](N)CCCNC(=N)N)C(=O)N[C@@H](C)C(=O)N[C@@H](Cc1c[nH]c2ccccc12)C(=O)N[C@@H](CCCNC(=N)N)C(=O)N[C@@H](CC(N)=O)C(=O)N[C@@H](CCCNC(=N)N)C(=O)O [HL9, RAWVAWRNR] (H-RAWVAWRNR-OH)			EC50 [1]: 48 nM
CC(C)[C@H](NC(=O)[C@H](Cc1c[nH]c2ccccc12)NC(=O)[C@H](C)NC(=O)[C@@H](N)CCCNC(=N)N)C(=O)N[C@@H](C)C(=O)N[C@@H](Cc1c[nH]c2ccccc12)C(=O)N[C@@H](CCCNC(=N)N)C(=O)N[C@@H](CC(N)=O)C(=O)N[C@@H](CCCCN)C(=O)O [HL9 (R115→K), RAWVAWRNK] (H-RAWVAWRNK-OH)	> 100000		
RVVRDPQGI [HL18-N9]		No Anti-HIV	anti-HIV activity [2]: no anti-HIV activity
RAWVAYRNR [HL9 (W112→Y)]		No Anti-HIV	
RVVRDPQGIRAYVAWRNR [HL18 (W109-Y)]		No Anti-HIV	
Lysozyme: Human lysozyme, whole molecule			EC50 ([2]; read-out: Anti-HIV EC50): 50 nM; EC50 ([2]; read-out: Anti-HIV activity (EC50)): 50 nM; EC50 ([2]; read-out: anti-HIV EC50 (50% inhibition concentration)): 55 nM; EC50 ([1]; read-out: Anti-KS EC50, Table 4): 54 nM
RAYVAWRNR [HL9 (W109→Y)]		No Anti-HIV	
CC(C)[C@H](NC(=O)[C@H](Cc1c[nH]c2ccccc12)NC(=O)[C@H](C)NC(=O)[C@@H](N)CC(N)=O)C(=O)N[C@@H](C)C(=O)N[C@@H](Cc1c[nH]c2ccccc12)C(=O)N[C@@H](CCCNC(=N)N)C(=O)N[C@@H](CC(N)=O)C(=O)N[C@@H](CCCNC(=N)N)C(=O)O [HL9 (R107→N), NAWVAWRNR] (H-NAWVAWRNR-OH)	> 100000		
RVVRDPQGIRAWVAYRNR [HL18 (W112-Y)]		No Anti-HIV	
CC(C)[C@H](NC(=O)[C@H](Cc1c[nH]c2ccccc12)NC(=O)[C@H](C)NC(=O)[C@@H](N)CCCNC(=N)N)C(=O)N[C@@H](C)C(=O)N[C@@H](Cc1c[nH]c2ccccc12)C(=O)N[C@@H](CCCCN)C(=O)N[C@@H](CC(N)=O)C(=O)N[C@@H](CCCNC(=N)N)C(=O)O [HL9 (R113→K), RAWVAWKNR] (H-RAWVAWKNR-OH)	> 100000		
CC[C@H](C)[C@H](NC(=O)CNC(=O)[C@H](CCC(N)=O)NC(=O)[C@@H]1CCCN1C(=O)[C@H](CC(=O)O)NC(=O)[C@H](CCCNC(=N)N)NC(=O)[C@@H](NC(=O)[C@@H](NC(=O)[C@@H](N)CCCNC(=N)N)C(C)C)C(C)C)C(=O)N[C@@H](CCCNC(=N)N)C(=O)N[C@@H](C)C(=O)N[C@@H](Cc1c[nH]c2ccccc12)C(=O)N[C@H](C(=O)N[C@@H](C)C(=O)N[C@@H](Cc1c[nH]c2ccccc12)C(=O)N[C@@H](CCCNC(=N)N)C(=O)N[C@@H](CC(N)=O)C(=O)N[C@@H](CCCNC(=N)N)C(=O)O)C(C)C [HL18, RVVRDPQGIRAWVAWRNR] (H-RVVRDPQGIRAWVAWRNR-OH; N-terminus and C-terminus assumed)	58		EC50 [1]: 56 nM

Source: patent US7838275B2, “Anti-HIV and anti-tumor peptides and fragments of lysozyme” (priority 2000, dated 2010)
